Laboratory results as given in the NIST ThermoML archive (doi:10.1016/j.fluid.2011.06.011).

Assay: xn = mol fraction of the nth substance listed
Conditions: Liquid; for speed of sound: Sing-around technique in a fixed-path interferometer; for mass density: Vibrating tube method

C=CC(C)(O)CCC=C(C)C (stereo not drawn) [3,7-dimethyl-1,6-octadien-3-ol] + CCO
Conditions	mass density, 283.15 K [kg/m3]	mass density, 298.15 K [kg/m3]	speed of sound, 283.15 K [m/s]	speed of sound, 298.15 K [m/s]
101 kPa, x1 = 0.0506	809.66	797.07	1222	–
101 kPa, x1 = 0.0507	–	–	–	1171.7
101 kPa, x1 = 0.1008	819.09	806.76	1245	1196.3
101 kPa, x1 = 0.1969	833.37	821.08	1281	1229.2
101 kPa, x1 = 0.2895	843.35	831.1	–	1253.6
101 kPa, x1 = 0.2959	–	–	1307.6	–
101 kPa, x1 = 0.3862	–	838.62	1325.8	1271.2
101 kPa, x1 = 0.3957	851.69	–	–	–
101 kPa, x1 = 0.4803	856.48	844.09	1339	–
101 kPa, x1 = 0.4834	–	–	–	1285
101 kPa, x1 = 0.593	861.02	848.66	1350.3	1294.7
101 kPa, x1 = 0.6838	863.65	851.31	1355.4	1300.7
101 kPa, x1 = 0.7832	–	–	1361	1306.5
101 kPa, x1 = 0.8438	866.82	854.5	–	–
101 kPa, x1 = 0.8941	867.74	855.41	1365.1	1310.7
101 kPa, x1 = 0.9286	868.3	855.96	1366.7	1312.2
101 kPa, x1 = 1	869.39	857	1370.6	1315.1
20000 kPa, x1 = 0.0511	824.1	812.6	–	–
20000 kPa, x1 = 0.1003	832.7	821.5	–	–
20000 kPa, x1 = 0.1962	845.8	834.6	–	–
20000 kPa, x1 = 0.2989	856	844.8	–	–
20000 kPa, x1 = 0.3996	863	851.7	–	–
20000 kPa, x1 = 0.5015	868.2	856.9	–	–
20000 kPa, x1 = 0.5982	871.9	860.6	–	–
20000 kPa, x1 = 0.6898	874.7	863.4	–	–
20000 kPa, x1 = 0.7929	877.2	865.8	–	–
20000 kPa, x1 = 0.8885	879.1	867.7	–	–
20000 kPa, x1 = 0.9435	880	868.6	–	–
20000 kPa, x1 = 1	880.8	869.4	–	–
25000 kPa, x1 = 0.0511	827.5	816.1	–	–
25000 kPa, x1 = 0.1003	836.1	824.9	–	–
25000 kPa, x1 = 0.1962	849	837.9	–	–
25000 kPa, x1 = 0.2989	859.1	848	–	–
25000 kPa, x1 = 0.3996	866	854.8	–	–
25000 kPa, x1 = 0.5015	871.2	860	–	–
25000 kPa, x1 = 0.5982	874.9	863.6	–	–
25000 kPa, x1 = 0.6898	877.6	866.3	–	–
25000 kPa, x1 = 0.7929	880.1	868.7	–	–
25000 kPa, x1 = 0.8885	882	870.7	–	–
25000 kPa, x1 = 0.9435	882.9	871.5	–	–
25000 kPa, x1 = 1	883.7	872.3	–	–
30000 kPa, x1 = 0.0511	830.7	819.6	–	–
30000 kPa, x1 = 0.1003	839	828.2	–	–
30000 kPa, x1 = 0.1962	851.9	841.1	–	–
30000 kPa, x1 = 0.2989	861.9	851	–	–
30000 kPa, x1 = 0.3996	868.8	857.8	–	–
30000 kPa, x1 = 0.5015	873.9	863	–	–
30000 kPa, x1 = 0.5982	877.5	866.5	–	–
30000 kPa, x1 = 0.6898	880.2	869.2	–	–
30000 kPa, x1 = 0.7929	882.7	871.6	–	–
30000 kPa, x1 = 0.8885	884.6	873.5	–	–
30000 kPa, x1 = 0.9435	885.4	874.4	–	–
30000 kPa, x1 = 1	886.1	875.2	–	–
35000 kPa, x1 = 0.0511	833.8	822.8	–	–
35000 kPa, x1 = 0.1003	842.2	831.4	–	–
35000 kPa, x1 = 0.1962	854.9	844.1	–	–
35000 kPa, x1 = 0.2989	864.7	854	–	–
35000 kPa, x1 = 0.3996	871.5	860.7	–	–
35000 kPa, x1 = 0.5015	876.7	865.8	–	–
35000 kPa, x1 = 0.5982	880.3	869.3	–	–
35000 kPa, x1 = 0.6898	882.9	872	–	–
35000 kPa, x1 = 0.7929	885.3	874.4	–	–
35000 kPa, x1 = 0.8885	887.2	876.3	–	–
35000 kPa, x1 = 0.9435	888.1	877.1	–	–
35000 kPa, x1 = 1	888.9	877.9	–	–
40000 kPa, x1 = 0.0511	836.8	826	–	–
40000 kPa, x1 = 0.1003	845.1	834.5	–	–
40000 kPa, x1 = 0.1962	857.6	847.1	–	–
40000 kPa, x1 = 0.2989	867.4	856.9	–	–
40000 kPa, x1 = 0.3996	874.1	863.5	–	–
40000 kPa, x1 = 0.5015	879.3	868.6	–	–
40000 kPa, x1 = 0.5982	882.8	872.1	–	–
40000 kPa, x1 = 0.6898	885.5	874.8	–	–
40000 kPa, x1 = 0.7929	887.9	877.1	–	–
40000 kPa, x1 = 0.8885	889.7	878.9	–	–
40000 kPa, x1 = 0.9435	890.6	879.7	–	–
40000 kPa, x1 = 1	891.4	880.6	–	–
